# Source: patent publication US9261498B2, “Biomarker for sensitivity to mTOR inhibitor therapy in kidney cancer” (The Regents of the University of California, priority 2005, dated 2016)
# “Also recorded” adds a separate entry of the source.
# Tested on: HIF-1α
# Experiment: Immunoblot of heterologously expressed HIF-1α cDNA with or without 5'TOP sequences
# Format: cell-based, human
# Conditions: VHL wild-type SN12C cells, 1 or 10 nM CCI-779, 24 hours
# Procedure: (a) SN12C-CSCG and SN12C-VHLshRNA cell were treated with vehicle, 1 nM or 10 nM of CCI-779 and lysed 24 hours later. Lysates were subjected to immunoblotting for HIF-1α, HIF-2α, GLUT-1, CA-IX, p-eIF4G, p-S6 Ribosomal protein. Equal protein loading was verified using anti-β-actin antibody. (b) HIF-1α expression was probed by immunoblotting in SN12C-MSCV-5′TOP-HIF-1α cDNA (left panel) and SN12C-MSCV-HIF-1α cDNA (tight panel) post 24 hours of vehicle, 1 nM or 10 nM of CCI-779.
# The pCSUVCG (U6-shRNA-VHL-CMV-GFP) was constructed by ligating the BamHI/EcoRI digests of pCSCG and the U6-shRNA-VHL PCR product (see, e.g. Chen, C. D. et al. Nat Med 10, 33-9 (2004)). The U6-shRNA-VHL PCR was performed using a hU6-containing plasmid at an annealing temperature of 60° C. with the primers 5′ abc 3′ and 5′ xyz 3′. […]
# Cells and xenograft tumors were lysed in ECB lysis buffer or high-detergent buffer (2% SDS), respectively, supplemented with complete protease and phosphatase inhibitor cocktails (Calbiochem). […] Bound antibody was detected using enhanced chemiluminescence (ECL, Amersham). For VEGF ELISA quantification, cells were plated in 6 well plates (1×10^5 per well). […] Thirty-six hours later, VEGF ELISA (R&D Systems) was performed according to the manufacturer's instructions, using a Fisher Plate reader. […]
structure (smiles),measurement,value
CO[C@H]1C[C@@H]2CC[C@@H](C)[C@@](O)(O2)C(=O)C(=O)N2CCCC[C@H]2C(=O)O[C@H]([C@H](C)C[C@@H]2CC[C@@H](OC(=O)C(C)(CO)CO)[C@H](OC)C2)CC(=O)[C@H](C)/C=C(\C)[C@@H](O)[C@@H](OC)C(=O)[C@H](C)C[C@H](C)/C=C/C=C/C=C/1C [CCI-779],"HIF-1α protein levels, 5'TOP sequence removed",largely unaffected
same,"HIF-1α protein levels, cDNA retaining the 5'TOP sequences",reduction in HIF-1α protein levels; also recorded: decrease in HIF-1α protein levels
